The record followed here is patent publication US20200298233A1, “MICROFLUIDIC PAPER CHIP FOR DETECTING MICRO-ORGANISM, METHOD FOR PREPARING THE SAME AND METHOD FOR DETECTING MICRO-ORGANISM USING THE SAME” (BIOMAX CO., LTD., priority 2017, published 2020).

Assay [1] relates to Escherichia coli. The following applies: chromogenic reagent terminal concentration 10 mM, 30 minutes at 37° C.
In assay [2] the test system is 5 food risk microorganisms. The assay can be described thus: Bacterial lysis efficacy by optical density, overall statements. The class given is cell-based.
The test system of assay [3] is Esherichia coli O157. The assay can be described thus: Bacterial lysis efficacy by measuring optical density (OD). The format is cell-based, Escherichia coli O157.
For assay [4], the system named is Salmonella spp. The description is as above.
Assay [5] concerns Staphylococcus aureus. The assay is described as above. The class given is cell-based.
The subject of assay [6] is Listeria monocytogenes. The assay is described as above. The format is cell-based.
Assay [7] has as its system Vibrio vulnificus. The description is as above.
The subject of assay [8] is Listeria monocytogenes. In words: Coloring reaction test of chromogenic reagents, 96 well plate. The class given is biochemical. The following applies: chromogenic reagent terminal concentration 10 mM, 30 minutes at 37° C.
Assay [9] concerns Staphylococcus aureus. The assay is described as above. The format is biochemical. The following applies: chromogenic reagent terminal concentration 10 mM, 30 minutes at 37° C.
In assay [10] the test system is Vibrio vulnificus. Described as above. The class given is biochemical. The following applies: chromogenic reagent terminal concentration 10 mM, 30 minutes at 37° C.
Assay [11] relates to Escherichia coli O157. The following applies: chromogenic reagent terminal concentration 10 mM, 30 minutes at 37° C.

Several values for one entry are separate records, joined by “and”; a condition that tells them apart may be missing. Identical values can stand only once.

Regarding `O.O.O.O=C([O-])[C@H]1O[C@@H](Oc2c[nH]c3ccc(Br)c(Cl)c23)[C@H](O)[C@@H](O)[C@@H]1O.[Na+]` [X-beta-glucuronide, 5-Bromo-4-chloro-3-indoxyl-beta-D-glucuronic acid Sodium salt trihydrate], in assay [1], the coloring reaction entry was “unique coloring reaction”.
As for `CCCCCCCc1ccc(C(O)CC[N+](C)(C)CCCS(=O)(=O)[O-])cc1` (centres unmarked) [C7BzO, 3-[[3-(4-heptylphenyl)-3-hydroxypropyl]-dimethylazaniumyl]propane-1-sulfonate], in [2] (table 7), the “lysis efficacy on addition to 1% (v/v) SB3-14” value was “increased the most”.
With `CCCCCCCCCCCCCC[N+](C)(C)CCCS(=O)(=O)[O-]` [SB3-14], the Optical density was 0.1112 and 0.1137 and 0.1126 in assay [3] (Table 7, additives to 1% SB3-14, initial O.D = 1.0911); 0.1264 and 0.1254 and 0.1241 in [3] (Table 8, C7BZO concentrations added to 1% SB3-14, initial O.D = 1.0829); 0.4641 and 0.4483 and 0.4351 in assay [3] (detergent 0.1%, initial O.D = 0.8139); 0.2262 and 0.2254 and 0.2230 in assay [3] (detergent 0.5%, initial O.D = 0.8139); 0.0270 and 0.0238 and 0.0244 in [3] (detergent 1%, initial O.D = 0.8139); 0.4447 and 0.4452 and 0.4459 in [3] (detergent 2%, initial O.D = 0.8139). Besides, the Optical density in assay [3] (detergent 3%, initial O.D = 0.8139) is 0.6228 and 0.6275 and 0.6225; in assay [3] (detergent 5%, initial O.D = 0.8139), 0.6731 and 0.6746 and 0.6733; in assay [4] (Table 7, additives to 1% SB3-14, initial O.D = 1.0894), 0.3597 and 0.3519 and 0.3447; in assay [4] (Table 8, C7BZO concentrations added to 1% SB3-14, initial O.D = 1.3421), 0.3640 and 0.3631 and 0.3627; in [4] (detergent 0.1%, initial O.D = 1.4448), 0.5393 and 0.5423 and 0.5520; in [4] (detergent 0.5%, initial O.D = 1.4448) it was 0.5807 and 0.5788 and 0.5796. Also, the Optical density was 0.4105 and 0.4095 in assay [4] (detergent 1%, initial O.D = 1.4448); 0.5727 and 0.5754 and 0.5776 in [4] (detergent 2%, initial O.D = 1.4448); 0.5196 and 0.5221 in assay [4] (detergent 3%, initial O.D = 1.4448); 0.4419 and 0.4454 and 0.4443 in assay [4] (detergent 5%, initial O.D = 1.4448); 0.8154 and 0.8152 and 0.8153 in [5] (Table 7, additives to 1% SB3-14, initial O.D = 1.2274); 0.8664 and 0.8654 and 0.8652 in [5] (Table 8, C7BZO concentrations added to 1% SB3-14, initial O.D = 1.1374). Moreover, the Optical density is 0.9052 and 0.9069 and 0.9087 in assay [5] (detergent 0.1%, initial O.D = 1.1877); 1.1084 and 1.1070 and 1.1092 in assay [5] (detergent 0.5%, initial O.D = 1.1877); 0.5341 and 0.5322 in assay [5] (detergent 1%, initial O.D = 1.1877); 0.9473 and 0.9470 and 0.9461 in assay [5] (detergent 2%, initial O.D = 1.1877); 1.0432 and 1.0429 and 1.0502 in [5] (detergent 3%, initial O.D = 1.1877); 0.8999 and 0.8987 and 0.8865 in assay [5] (detergent 5%, initial O.D = 1.1877). Further, the Optical density was 0.6579 and 0.6484 and 0.6514 in [6] (Table 7, additives to 1% SB3-14, initial O.D = 1.2010); 0.7673 and 0.7609 and 0.7595 in assay [6] (Table 8, C7BZO concentrations added to 1% SB3-14, initial O.D = 1.1086); 0.9540 and 0.9653 and 0.9757 in assay [6] (detergent 0.1%, initial O.D = 0.8336); 0.8154 and 0.8244 and 0.8145 in assay [6] (detergent 0.5%, initial O.D = 0.8336); 0.5993 and 0.5050 and 0.5950 in assay [6] (detergent 1%, initial O.D = 0.8336); 0.9852 and 0.9975 and 0.9807 in assay [6] (detergent 2%, initial O.D = 0.8336). In addition, the Optical density is 0.7006 and 0.6813 and 0.6884 in [6] (detergent 3%, initial O.D = 0.8336); 0.7960 and 0.7828 and 0.7815 in assay [6] (detergent 5%, initial O.D = 0.8336); 0.0800 and 0.0798 and 0.0787 in assay [7] (Table 7, additives to 1% SB3-14, initial O.D = 0.5670); 0.2733 and 0.2706 and 0.2737 in assay [7] (Table 8, C7BZO concentrations added to 1% SB3-14, initial O.D = 1.0272); 0.1924 and 0.1953 and 0.1984 in assay [7] (detergent 0.1%, initial O.D = 0.6143, listed as SB-14); 0.0679 and 0.0739 and 0.0695 in [7] (detergent 0.5%, initial O.D = 0.6143, listed as SB-14). Further, the Optical density in [7] (detergent 1%, initial O.D = 0.6143, listed as SB-14) was 0.0601 and 0.0595 and 0.0588; in assay [7] (detergent 2%, initial O.D = 0.6143, listed as SB-14), 0.0445 and 0.0393 and 0.0447; in assay [7] (detergent 3%, initial O.D = 0.6143, listed as SB-14), 0.0453 and 0.0547 and 0.0528; in [7] (detergent 5%, initial O.D = 0.6143, listed as SB-14), 0.0310 and 0.0329 and 0.0320. For the same molecule, the bacterial lysis efficacy entry in assay [2] (detergents at 1%, tables 3 and 4) was “best bacterial lysis efficacy”.
As for “Aldol ® 518 myo-inositol-1-phosphate [Aldol-myo-inositol-1-phosphate]”, the coloring reaction result in assay [8] is given as “unique coloring reaction”.
For “5-Bromo-6-chloro-3-indoxyl-beta-D-galactopyranoside [Magenta-beta-galactopyranoside]”, the coloring reaction entry in assay [9], in assay [10] and in [11] was “unique coloring reaction” throughout.
